{
  "source": "patent US20120028968A1",
  "about": "(priority 2009, published 2012)",
  "target": "α7-subtype of nicotinic receptors (Rattus norvegicus, UniProt Q05941)",
  "sequence (Q05941 23-502)": "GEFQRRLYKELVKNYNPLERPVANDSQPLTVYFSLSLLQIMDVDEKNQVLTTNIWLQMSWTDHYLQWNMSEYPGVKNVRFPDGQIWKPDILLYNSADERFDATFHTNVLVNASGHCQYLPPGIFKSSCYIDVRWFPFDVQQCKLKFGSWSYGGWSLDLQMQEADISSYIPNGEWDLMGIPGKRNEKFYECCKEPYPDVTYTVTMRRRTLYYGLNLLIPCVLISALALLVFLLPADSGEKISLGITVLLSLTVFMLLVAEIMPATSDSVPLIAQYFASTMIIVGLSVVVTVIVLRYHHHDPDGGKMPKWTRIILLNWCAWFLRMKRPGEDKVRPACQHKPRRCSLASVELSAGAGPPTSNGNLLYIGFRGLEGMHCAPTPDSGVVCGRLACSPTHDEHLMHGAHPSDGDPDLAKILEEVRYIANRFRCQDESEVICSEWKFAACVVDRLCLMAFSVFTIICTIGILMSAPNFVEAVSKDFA",
  "assay": "biochemical",
  "assay_type": "binding",
  "note": "Where a name gives a salt, the structure may show the parent alone.",
  "data": [
    {"smiles": "c1ccc2c(c1)oc1c(-c3nnc(N4CCN5CCC4CC5)o3)cccc12", "note": "[Compound 1, 4-(5-Dibenzofuran-4-yl-[1,3,4]oxadiazol-2-yl)-1,4-diaza-bicyclo[3.2.2]nonane fumaric acid salt]", "values": [
      {"measurement": "IC50", "result": 16, "unit": "nM"}
    ]}
  ]
}
